Patent publication US8785483B2, “Methods for treating COPD” (The Board of Regents of the University of Texas System, priority 2010, dated 2014)

What was measured:
STAT-6 = experiment: Western blot of STAT-6 phosphorylation in airway epithelial monolayer; type: cell-based, human; conditions: ALI monolayer, AR inhibitor 24 h prior to IL-13
Experimental: FIG. 7. AR inhibition prevents IL-13-induced phosphorylation of JAK-1, ERK1/2 and STAT-6 in airway epithelial monolayer. The ciliated monolayer of airway cells at ALI was treated with AR inhibitor for 24 h and stimulated with IL-13 for different time periods as indicated. At the end of incubation, cells were lysed and cell lysate was subjected to western blotting using antibodies against phosphorylated and nonphosphorylated JAK-1, ERK1/2 and STAT-6 to analyze the activation of these signaling proteins. A representative blot is shown (n=4). #p<0.001 vs Control; *p<0.01 and **p<0.001 vs IL-13. For air-liquid interface (ALI) culture, SAEC were seeded at 8.5×10^4 cells/12-mm-diameter PET transparent insert with […] pores (12-well millicell culture insert; Millipore) and pre-coated with rat tail collagen type-1 (Sigma-Aldrich). The cells were grown submerged in the differentiation medium as described earlier by Zhen et al. (Am J Respir Cell Mol Biol 36: 244-253, 2007). […] Protein levels were determined using Bradford reagent (Biorad, Hercules, Calif.). […] The blots were then washed, exposed to HRP-conjugated secondary antibodies (1:5,000 dilution) for 1 h, and the antigen-antibody complex was detected by enhanced chemiluminescence (Amersham Pharmacia Biotech, Piscataway, N.J., USA). […]

Muc5AC = Muc5AC ELISA in culture medium; type: cell-based, human; conditions: airway epithelial monolayer, IL-13 48 h
Experimental: FIGS. 5A-5B. AR inhibition prevents IL-13-induced goblet cell metaplasia and expression of Muc5AC in airway epithelial monolayer. (A) The well-differentiated airway epithelial cells at air-liquid interface (ALI) were incubated with IL-13 for 48 h without or with AR inhibitor, fidarestat. The monolayer was fixed as described and immunohistochemistry using Muc5AC antibodies was performed on the sections. A representative photomicrograph is shown (n=4); magnification 400×. […] (C) The airway epithelial monolayer was incubated with IL-13 submerged in basal medium for 48 h in the absence and presence of AR inhibitor, fidarestat. The culture medium was collected from the top chamber and utilized for determination of Muc5AC by an ELISA, (n=4); *p<0.005 vs Control; **p<0.01 vs IL-13. For air-liquid interface (ALI) culture, SAEC were seeded at 8.5×10^4 cells/12-mm-diameter PET transparent insert with […] pores (12-well millicell culture insert; Millipore) and pre-coated with rat tail collagen type-1 (Sigma-Aldrich). The cells were grown submerged in the differentiation medium as described earlier by Zhen et al. (Am J Respir Cell Mol Biol 36: 244-253, 2007). […] Muc5AC levels in the culture medium were assessed by ELISA using commercially available human anti-Muc5AC ELISA essentially as described by the manufacturer (Cosmo Bio USA; Carlsbad, Calif.).

## NC(=O)[C@@H]1C[C@]2(NC(=O)NC2=O)c2cc(F)ccc2O1 [fidarestat, (2S,4S)-2-aminoformyl-6-fluoro-spiro[chroman-4,4′-imidazolidine]-2′,5′-dione]
STAT-6
  IL-13-induced phosphorylation of STAT-6: decreased significantly
Muc5AC
  prevention of IL-13-induced secretion of Muc5AC in the medium: ~80%
